Source: patent publication US20250228795A1, “ESTROGENIC COMPOUNDS AND METHODS OF USE” (laterion, Inc., priority 2022, published 2025)
One block for each compound: values may come before it.

Assays:
[1] = tested on: MCF-7 breast cancer cells; assay: MCF-7 cell proliferation (viable cell counts), A9 and its four analogs; type: cell-based
Method: Viable cell counts were determined by flow cytometry.
(§1) MCF-7 cells were plated at a density of 50,000 cells per well in 6-well tissue culture plates in DMEM/F12 supplemented with 5% stripped FBS. […] The cells were then detached with trypsin, neutralized with media containing 5% FBS, and resuspended. Appropriate amounts of cell suspension were placed in ISOTON II diluent (Thermo Fisher Scientific, Waltham, MA, USA) and the cell numbers were then measured using a Coulter Counter (Beckman, Brea, CA, USA)
(§2) Flow cytometry was performed based on a previously described method (Pan et al. 2016). Briefly, the cells were plated at a density of 500,000 cells per well in 6-well tissue culture dishes in DMEM/F-12 supplemented with 5% stripped FBS for 48 h. The cultured medium was then replaced by serum-free DMEM/F12 for 24 h. […] The culture medium was then aspirated, and the cells were washed with PBS, detached with trypsin and collected by centrifugation at 1700 rpm for 5 min. The cell pellets were washed with ice cold PBS followed by centrifugation at 1700 rpm for 10 min at room temperature. The cell pellets were resuspended in 500 μL PBS containing 50 μg/mL propidium iodide, 0.1% of triton X-100, 0.1% of sodium citrate, and 10 μg/mL of RNase. The cell suspensions were then analyzed with a BD LSR II Flow Cytometer (BD Biosciences, San Jose, CA, USA) in the Flow Cytometry facility at University of California, Berkeley and the percentage of cells in cell cycle phases were determined by using FlowJo 7.6.5 (FlowJo, LLC, Ashland, OR, USA).

[2] = target: T1, ERα (Homo sapiens, UniProt P03372); assay: Luciferase activity in ERE-TK-Luc/ERα-transfected Ishikawa cells; type: cell-based; parameters: expressed in transfected cells; host or cells: Ishikawa cells; settings: FIG. 6
T1 sequence (P03372 1-595): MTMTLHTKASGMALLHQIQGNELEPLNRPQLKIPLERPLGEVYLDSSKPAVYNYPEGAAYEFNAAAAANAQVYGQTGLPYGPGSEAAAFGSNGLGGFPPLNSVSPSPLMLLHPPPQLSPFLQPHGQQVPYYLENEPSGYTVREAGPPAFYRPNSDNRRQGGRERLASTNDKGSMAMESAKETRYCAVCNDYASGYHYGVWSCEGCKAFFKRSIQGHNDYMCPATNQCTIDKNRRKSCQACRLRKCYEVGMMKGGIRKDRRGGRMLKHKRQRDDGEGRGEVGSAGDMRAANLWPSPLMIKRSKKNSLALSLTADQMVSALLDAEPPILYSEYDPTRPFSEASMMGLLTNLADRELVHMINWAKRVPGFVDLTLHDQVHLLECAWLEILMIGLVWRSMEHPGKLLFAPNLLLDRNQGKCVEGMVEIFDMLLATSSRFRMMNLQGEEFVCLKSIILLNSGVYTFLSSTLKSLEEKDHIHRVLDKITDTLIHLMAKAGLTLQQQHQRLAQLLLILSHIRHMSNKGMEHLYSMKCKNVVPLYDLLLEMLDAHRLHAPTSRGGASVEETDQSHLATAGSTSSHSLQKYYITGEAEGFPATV

[3] = tested on: FGR; assay: Gene expression assay (real-time PCR) in U2OS-ERα cells: reprogrammed gene FGR; type: cell-based, Human; settings: FIG. 5
Method: (§3) Human U2OS (osteosarcoma) cells expressing a tetracycline-regulated ERα (U2OS-ERα) were prepared, characterized, and maintained as previously described (Tee et al., 2004). The cells were maintained in phenol red-free Gibco DMEM/F-12 (Thermo Fisher Scientific, Waltham, MA, USA) supplemented with 5% charcoal-dextran stripped fetal bovine serum (FBS, Gemini Bio Products, West Sacramento, CA, USA), 100 units/mL penicillin and streptomycin, 50 μg/mL Fungizone, and 2 mM of glutamine. To maintain stable transfected cells, 50 μg/mL hygromycin B and 500 μg/mL of zeocin (Invitrogen, Waltham, MA, USA) were included in culture media.

[4] = tested on: KRT19; assay: Gene expression assay (real-time PCR) in U2OS-ERα cells: KRT19; type: cell-based, Human; settings: in combination with E2, U2OS-ERα cells, FIG. 5
Method: as §3

[5] = tested on: MCF-7 breast cancer cells; assay: MCF-7 cell proliferation (viable cell counts), CC7 and six analogs; type: cell-based
Method: In order for long term menopausal hormone therapy to be a viable alternative to currently available therapeutic options it must not promote breast cancer. […] MCF-7 cells were incubated for 24 hr in the presence of medium (control), 1 nM […], or 5 μM of each of the compounds depicted in FIG. 4 (CC7 and six analogs, A9, A10, A11, A13, A15, and A20). Viable cell counts were determined by flow cytometry.
as §1, with “CA, USA).” for “CA, USA)”
as §2

[6] = target: T1, ERα; assay: Luciferase assay of A9 analogs in doxycycline-dependent U2OS cells (ER-TK-Luc or NKG2E-TK-Luc); type: cell-based; parameters: expressed in transfected cells; host or cells: doxycycline-dependent U2OS cells; settings: in combination with E2; ER-TK-Luc (FIG. 9) and NKG2E-TK-Luc (FIG. 10); compared with A9R1-A9R4
Method: Luciferase Assay of A9 analogs. In order to better understand the structure-activity relationship of analogs of A9, the analogs A9R1, A9R2, A9R3, and A9R4 were prepared. See structures on FIG. 8. […] Luciferase activity results are shown in FIG. 9 (ER-TK-Luc) and FIG. 10 (NKG2E-TK-Luc).

[7] = target: T2, ERβ (Homo sapiens, UniProt Q92731); assay: Luciferase activity in NKG2E-TK-Luc-transfected U2OS-ERβ cells with doxycycline; type: cell-based; settings: in combination with E2, doxycycline, FIG. 7
T2 construct: expressed in transfected cells; host or cells: doxycycline-dependent U2OS cells
Method: Luciferase Activity in NKG2E-TK-Luc-Transfected U2OS-ERβ Cells with Doxycycline. […] Luciferase activity for each of the compounds was recorded.

[8] = compound (5 μM) in combination with E2, FIG. 11
[9] = compound alone (1 nM E2 or 5 μM compound), FIG. 11
[10] = in combination with E2, Ishikawa cells
[11] = compound (5 μM) in combination with E2, FIG. 4

T2 sequence (Q92731 whole entry): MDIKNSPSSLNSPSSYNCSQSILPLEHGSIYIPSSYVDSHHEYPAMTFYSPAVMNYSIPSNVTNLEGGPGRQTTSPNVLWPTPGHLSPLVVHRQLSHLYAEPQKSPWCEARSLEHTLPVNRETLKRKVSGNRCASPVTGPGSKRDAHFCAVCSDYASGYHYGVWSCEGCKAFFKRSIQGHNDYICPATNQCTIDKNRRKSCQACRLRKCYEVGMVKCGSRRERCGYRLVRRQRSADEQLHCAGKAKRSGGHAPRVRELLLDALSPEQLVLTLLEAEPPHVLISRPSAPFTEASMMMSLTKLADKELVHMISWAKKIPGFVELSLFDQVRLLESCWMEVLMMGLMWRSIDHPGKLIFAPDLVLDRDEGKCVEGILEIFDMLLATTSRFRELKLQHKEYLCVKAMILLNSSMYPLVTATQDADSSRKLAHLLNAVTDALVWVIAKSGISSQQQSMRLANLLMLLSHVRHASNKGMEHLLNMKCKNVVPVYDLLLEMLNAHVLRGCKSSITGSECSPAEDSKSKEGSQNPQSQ

Compound: O=C(/C=C/c1ccccc1)c1ccc(O)c(O)c1O [CC7, 2′,3′,4′-trihydroxychalcone, reference compound]
MCF-7 viable cell count / proliferation [1, 8]: well below the control | MCF-7 viable cell count / proliferation [1, 9]: well below the cell counts for E2 alone | luciferase activity (ERE-TK-Luc) ([2]; compound alone, Ishikawa cells): no effect | luciferase activity (ERE-TK-Luc) [2, 10]: demonstrated synergism with E2 | FGR expression ([3]; compound by itself, U2OS-ERα cells): not by either compound by itself | FGR expression ([3]; in combination with E2, U2OS-ERα cells): activated by the combination of E2 and CC7 only | KRT19 expression [4]: large synergistic effect | MCF-7 viable cell count / proliferation [5, 11]: well below the cell counts for E2 alone | MCF-7 viable cell count / proliferation ([5]; compound alone (1 nM E2 or 5 μM compound), FIG. 4): well below the cell counts for E2 alone

luciferase activity, synergistic effect with E2 [6]: greatest synergistic effect with E2 | luciferase activity (ERE-TK-Luc) ([2]; compound alone, Ishikawa cells): no effect | luciferase activity (ERE-TK-Luc) [2, 10]: demonstrated synergism with E2
Compound: O=C(/C=C/c1ccccn1)c1ccc(O)c(O)c1O [Example A9, (E)-3-(pyridin-2-yl)-1-(2,3,4-trihydroxyphenyl)prop-2-en-1-one]
MCF-7 viable cell count / proliferation [1, 8]: well below the control | MCF-7 viable cell count / proliferation [1, 9]: well below the cell counts for E2 alone | MCF-7 viable cell count / proliferation [5, 11]: well below the control

Compound: O=C(/C=C/c1ccccn1)c1ccc(O)cc1 [Example A9R1, (E)-1-(4-hydroxyphenyl)-3-(pyridin-2-yl)prop-2-en-1-one]
MCF-7 viable cell count / proliferation [1, 8]: well below the control

Compound: Cc1cc(O)ccc1C(=O)/C=C/c1ccccn1 [Example A9R2, (E)-1-(4-hydroxy-2-methylphenyl)-3-(pyridin-2-yl)prop-2-en-1-one]
MCF-7 viable cell count / proliferation [1, 8]: well below the control

Compound: O=C(/C=C/c1ccccn1)c1ccc(O)cc1O [Example A9R4, (E)-1-(2,4-dihydroxyphenyl)-3-(pyridin-2-yl)prop-2-en-1-one]
MCF-7 viable cell count / proliferation [1, 8]: well below the control

luciferase activity (NKG2E-TK-Luc), ERβ activity [7]: exceptional ERβ activity
Compound: O=C(/C=C/c1cccc(O)c1)c1ccc(O)c(O)c1O [Example A10, (E)-3-(3-hydroxyphenyl)-1-(2,3,4-trihydroxyphenyl)prop-2-en-1-one]
MCF-7 viable cell count / proliferation [5, 11]: well below the cell counts for E2 alone

Compound: O=C(/C=C/c1ccc(O)cc1)c1ccc(O)cc1 [Example A13, (E)-1,3-bis(4-hydroxyphenyl)prop-2-en-1-one]
luciferase activity (NKG2E-TK-Luc), ERβ activity [7]: exceptional ERβ activity

Compound: O=C(/C=C/c1ccc(O)cc1)c1ccc(O)c(O)c1 [Example A14, (E)-1-(3,4-dihydroxyphenyl)-3-(4-hydroxyphenyl)prop-2-en-1-one]
luciferase activity (NKG2E-TK-Luc), ERβ activity [7]: exceptional ERβ activity

Compound: O=C(/C=C/c1ccc(O)cc1)c1ccccc1 [Example A15, (E)-3-(4-hydroxyphenyl)-1-phenylprop-2-en-1-one]
luciferase activity (NKG2E-TK-Luc), ERβ activity [7]: exceptional ERβ activity
